# From US9738634B2, “Heterocyclic amide compound and herbicide” (SYNGENTA PARTICIPATIONS AG, priority 2013, dated 2017)
# Columns and labels:
# Type in all cases: in vivo
# Details in all cases: treatment dosage 320 g/ha
# barnyard grass [1] = test: Test Example 1: weedkilling efficacy, preemergent weed treatment in the submerged state; A: barnyard grass
# In short: (§1)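 Visual scores against set criteria were taken 3 weeks after treatment. Compounds, as diluted emulsions at specified g/ha, went onto the water surface of 4 cm-flooded alluvial soil pots on the day weeds were sown and 2.5-leaf rice was transplanted; greenhouse held 25–30 °C.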
# bulrush [2] = test: Test Example 1: weedkilling efficacy, preemergent weed treatment in the submerged state; B: bulrush
# In short: as §1
# oval-leafed pondweed [3] = test: Test Example 1: weedkilling efficacy, preemergent weed treatment in the submerged state; C: oval-leafed pondweed
# In short: as §1
# transplanted rice = test: Test Example 1: preemergent weed treatment in the submerged state, effect on crop; a: transplanted rice
# In short: as §1
# barnyard grass [4] = test: Test Example 2: weedkilling efficacy, growth period weed treatment in the submerged state; A: barnyard grass
# In short: (§2)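 Barnyard grass, bulrush and oval-leafed pondweed sown in alluvial soil under 4 cm flooding, greenhouse 25 to 30° C. At 1-2 leaf stage, water-diluted emulsion applied to the water surface at stated g/ha dosages; effects scored 3 weeks later.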
# bulrush [5] = test: Test Example 2: weedkilling efficacy, growth period weed treatment in the submerged state; B: bulrush
# In short: as §2
# oval-leafed pondweed [6] = test: Test Example 2: weedkilling efficacy, growth period weed treatment in the submerged state; C: oval-leafed pondweed
# In short: as §2
# crabgrass [7] = test: Test Example 3: weedkilling efficacy through soil treatment; D: crabgrass
# In short: (§3)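 Crop and weed responses were judged three weeks after a uniform surface spray of the water-diluted emulsion at the given g/ha rate. Seeds sat beneath about 1.5 cm of sterilized diluvial soil, and boxes stood in a greenhouse at 25 to 30° C.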
# green foxtail [8] = test: Test Example 3: weedkilling efficacy through soil treatment; E: green foxtail
# In short: as §3
# barnyard grass [9] = test: Test Example 3: weedkilling efficacy through soil treatment; F: barnyard grass
# In short: as §3
# wild oat [10] = test: Test Example 3: weedkilling efficacy through soil treatment; G: wild oat
# In short: as §3
# black-grass [11] = test: Test Example 3: weedkilling efficacy through soil treatment; H: black-grass
# In short: as §3
# Italian ryegrass [12] = test: Test Example 3: weedkilling efficacy through soil treatment; I: Italian ryegrass
# In short: as §3
# common wind-grass [13] = test: Test Example 3: weedkilling efficacy through soil treatment; J: common wind-grass
# In short: as §3
# Indian mallow [14] = test: Test Example 3: weedkilling efficacy through soil treatment; K: Indian mallow
# In short: as §3
# redroot pigweed [15] = test: Test Example 3: weedkilling efficacy through soil treatment; L: redroot pigweed
# In short: as §3
# fig-leafed goosefoot [16] = test: Test Example 3: weedkilling efficacy through soil treatment; M: fig-leafed goosefoot
# In short: as §3
# chickweed [17] = test: Test Example 3: weedkilling efficacy through soil treatment; N: chickweed
# In short: as §3
# catchweed [18] = test: Test Example 3: weedkilling efficacy through soil treatment; O: catchweed
# In short: as §3
# birds-eye speedwell = test: Test Example 3: weedkilling efficacy through soil treatment; p: birds-eye speedwell
# In short: as §3
# directly sown rice [19] = test: Test Example 3: soil treatment, effect on crop; b: directly sown rice
# In short: as §3
# corn [20] = test: Test Example 3: soil treatment, effect on crop; c: corn
# In short: as §3
# soybean [21] = test: Test Example 3: soil treatment, effect on crop; d: soybean
# In short: as §3
# wheat [22] = test: Test Example 3: soil treatment, effect on crop; e: wheat
# In short: as §3
# beet [23] = test: Test Example 3: soil treatment, effect on crop; f: beet
# In short: as §3
# rapeseed [24] = test: Test Example 3: soil treatment, effect on crop; g: rapeseed
# In short: as §3
# crabgrass [25] = test: Test Example 4: weedkilling efficacy by foliar treatment; D: crabgrass
# In short: (§4)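 Seeds are spot-sown into sterilized diluvial soil and covered with about 1.5 cm of soil. After 14 days' greenhouse growth at 25 to 30° C, plants are sprayed on stems and leaves with diluted emulsion at the stated g/ha rate, then scored at 3 weeks.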
# green foxtail [26] = test: Test Example 4: weedkilling efficacy by foliar treatment; E: green foxtail
# In short: as §4
# barnyard grass [27] = test: Test Example 4: weedkilling efficacy by foliar treatment; F: barnyard grass
# In short: as §4
# wild oat [28] = test: Test Example 4: weedkilling efficacy by foliar treatment; G: wild oat
# In short: as §4
# black-grass [29] = test: Test Example 4: weedkilling efficacy by foliar treatment; H: black-grass
# In short: as §4
# Italian ryegrass [30] = test: Test Example 4: weedkilling efficacy by foliar treatment; I: Italian ryegrass
# In short: as §4
# common wind-grass [31] = test: Test Example 4: weedkilling efficacy by foliar treatment; J: common wind-grass
# In short: as §4
# Indian mallow [32] = test: Test Example 4: weedkilling efficacy by foliar treatment; K: Indian mallow
# In short: as §4
# redroot pigweed [33] = test: Test Example 4: weedkilling efficacy by foliar treatment; L: redroot pigweed
# In short: as §4
# fig-leafed goosefoot [34] = test: Test Example 4: weedkilling efficacy by foliar treatment; M: fig-leafed goosefoot
# In short: as §4
# chickweed [35] = test: Test Example 4: weedkilling efficacy by foliar treatment; N: chickweed
# In short: as §4
# catchweed [36] = test: Test Example 4: weedkilling efficacy by foliar treatment; O: catchweed
# In short: as §4
# directly sown rice [37] = test: Test Example 4: foliar treatment, effect on crop; b: directly sown rice
# In short: as §4
# corn [38] = test: Test Example 4: foliar treatment, effect on crop; c: corn
# In short: as §4
# soybean [39] = test: Test Example 4: foliar treatment, effect on crop; d: soybean
# In short: as §4
# wheat [40] = test: Test Example 4: foliar treatment, effect on crop; e: wheat
# In short: as §4
# beet [41] = test: Test Example 4: foliar treatment, effect on crop; f: beet
# In short: as §4
# rapeseed [42] = test: Test Example 4: foliar treatment, effect on crop; g: rapeseed
# In short: as §4
smiles,measurement,setting,value
CC1=C(c2ccccc2)C(=O)N(C(C)(C)C(=O)Nc2ncccc2F)CO1 [B-2-24],A (barnyard grass) weedkilling efficacy grade,barnyard grass [1],"2 (weed kill ratio 20% or more, less than 40%)"
same,B (bulrush) weedkilling efficacy grade,bulrush [2],"5 (weed kill ratio 90% or more, (practically complete withering))"
same,C (oval-leafed pondweed) weedkilling efficacy grade,oval-leafed pondweed [3],"3 (weed kill ratio 40% or more, less than 70%)"
same,a (transplanted rice) effect on crop grade,transplanted rice,0 (weed kill ratio 5% or less (practically no effect))
same,A (barnyard grass) weedkilling efficacy grade,barnyard grass [4],"1 (weed kill ratio 5% or more, less than 20%)"
same,B (bulrush) weedkilling efficacy grade,bulrush [5],"4 (weed kill ratio 70% or more, less than 90%)"
same,C (oval-leafed pondweed) weedkilling efficacy grade,oval-leafed pondweed [6],"3 (weed kill ratio 40% or more, less than 70%)"
same,D (crabgrass) weedkilling efficacy grade,crabgrass [7],"3 (weed kill ratio 40% or more, less than 70%)"
same,E (green foxtail) weedkilling efficacy grade,green foxtail [8],"3 (weed kill ratio 40% or more, less than 70%)"
same,F (barnyard grass) weedkilling efficacy grade,barnyard grass [9],"3 (weed kill ratio 40% or more, less than 70%)"
same,G (wild oat) weedkilling efficacy grade,wild oat [10],0 (weed kill ratio 5% or less (practically no effect))
same,H (black-grass) weedkilling efficacy grade,black-grass [11],0 (weed kill ratio 5% or less (practically no effect))
same,I (Italian ryegrass) weedkilling efficacy grade,Italian ryegrass [12],0 (weed kill ratio 5% or less (practically no effect))
same,J (common wind-grass) weedkilling efficacy grade,common wind-grass [13],"3 (weed kill ratio 40% or more, less than 70%)"
same,K (Indian mallow) weedkilling efficacy grade,Indian mallow [14],0 (weed kill ratio 5% or less (practically no effect))
same,L (redroot pigweed) weedkilling efficacy grade,redroot pigweed [15],0 (weed kill ratio 5% or less (practically no effect))
same,M (fig-leafed goosefoot) weedkilling efficacy grade,fig-leafed goosefoot [16],0 (weed kill ratio 5% or less (practically no effect))
same,N (chickweed) weedkilling efficacy grade,chickweed [17],"3 (weed kill ratio 40% or more, less than 70%)"
same,O (catchweed) weedkilling efficacy grade,catchweed [18],0 (weed kill ratio 5% or less (practically no effect))
same,P (birds-eye speedwell) weedkilling efficacy grade,birds-eye speedwell,0 (weed kill ratio 5% or less (practically no effect))
same,b (directly sown rice) effect on crop grade,directly sown rice [19],0 (weed kill ratio 5% or less (practically no effect))
same,c (corn) effect on crop grade,corn [20],0 (weed kill ratio 5% or less (practically no effect))
same,d (soybean) effect on crop grade,soybean [21],0 (weed kill ratio 5% or less (practically no effect))
same,e (wheat) effect on crop grade,wheat [22],0 (weed kill ratio 5% or less (practically no effect))
same,f (beet) effect on crop grade,beet [23],0 (weed kill ratio 5% or less (practically no effect))
same,g (rapeseed) effect on crop grade,rapeseed [24],0 (weed kill ratio 5% or less (practically no effect))
same,D (crabgrass) weedkilling efficacy grade,crabgrass [25],0 (weed kill ratio 5% or less (practically no effect))
same,E (green foxtail) weedkilling efficacy grade,green foxtail [26],"1 (weed kill ratio 5% or more, less than 20%)"
same,F (barnyard grass) weedkilling efficacy grade,barnyard grass [27],0 (weed kill ratio 5% or less (practically no effect))
same,G (wild oat) weedkilling efficacy grade,wild oat [28],0 (weed kill ratio 5% or less (practically no effect))
same,H (black-grass) weedkilling efficacy grade,black-grass [29],0 (weed kill ratio 5% or less (practically no effect))
same,I (Italian ryegrass) weedkilling efficacy grade,Italian ryegrass [30],0 (weed kill ratio 5% or less (practically no effect))
same,J (common wind-grass) weedkilling efficacy grade,common wind-grass [31],"1 (weed kill ratio 5% or more, less than 20%)"
same,K (Indian mallow) weedkilling efficacy grade,Indian mallow [32],0 (weed kill ratio 5% or less (practically no effect))
same,L (redroot pigweed) weedkilling efficacy grade,redroot pigweed [33],0 (weed kill ratio 5% or less (practically no effect))
same,M (fig-leafed goosefoot) weedkilling efficacy grade,fig-leafed goosefoot [34],"4 (weed kill ratio 70% or more, less than 90%)"
same,N (chickweed) weedkilling efficacy grade,chickweed [35],"2 (weed kill ratio 20% or more, less than 40%)"
same,O (catchweed) weedkilling efficacy grade,catchweed [36],"3 (weed kill ratio 40% or more, less than 70%)"
same,b (directly sown rice) effect on crop grade,directly sown rice [37],0 (weed kill ratio 5% or less (practically no effect))
same,c (corn) effect on crop grade,corn [38],0 (weed kill ratio 5% or less (practically no effect))
same,d (soybean) effect on crop grade,soybean [39],0 (weed kill ratio 5% or less (practically no effect))
same,e (wheat) effect on crop grade,wheat [40],0 (weed kill ratio 5% or less (practically no effect))
same,f (beet) effect on crop grade,beet [41],0 (weed kill ratio 5% or less (practically no effect))
same,g (rapeseed) effect on crop grade,rapeseed [42],0 (weed kill ratio 5% or less (practically no effect))
